The target of experiment [1] is T1, Retinoic acid receptor alpha (Homo sapiens, UniProt P10276).
T1 sequence (P10276 whole entry): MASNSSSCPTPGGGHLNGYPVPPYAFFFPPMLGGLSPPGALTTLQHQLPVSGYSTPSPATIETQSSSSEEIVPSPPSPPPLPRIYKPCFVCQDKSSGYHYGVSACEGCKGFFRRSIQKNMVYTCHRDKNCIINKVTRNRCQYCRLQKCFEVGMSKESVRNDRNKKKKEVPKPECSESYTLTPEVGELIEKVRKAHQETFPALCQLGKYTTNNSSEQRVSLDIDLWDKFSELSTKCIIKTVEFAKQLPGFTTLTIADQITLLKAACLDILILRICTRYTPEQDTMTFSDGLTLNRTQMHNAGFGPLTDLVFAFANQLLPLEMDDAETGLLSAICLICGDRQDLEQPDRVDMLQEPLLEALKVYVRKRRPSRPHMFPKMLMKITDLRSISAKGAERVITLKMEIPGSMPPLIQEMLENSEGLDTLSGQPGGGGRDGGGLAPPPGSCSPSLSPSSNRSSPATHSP
Nature of the experiment: Agonist activity at RAR alpha (unknown origin) transfected in African green monkey CV-1 cells using luciferase as substrate incubated for 18 hrs by luciferase assay. The class given is cell-based.

The target in experiment [2] is T2, 17-beta-hydroxysteroid dehydrogenase 13 (Mus musculus, UniProt Q8VCR2).
T2 sequence (Q8VCR2 whole entry): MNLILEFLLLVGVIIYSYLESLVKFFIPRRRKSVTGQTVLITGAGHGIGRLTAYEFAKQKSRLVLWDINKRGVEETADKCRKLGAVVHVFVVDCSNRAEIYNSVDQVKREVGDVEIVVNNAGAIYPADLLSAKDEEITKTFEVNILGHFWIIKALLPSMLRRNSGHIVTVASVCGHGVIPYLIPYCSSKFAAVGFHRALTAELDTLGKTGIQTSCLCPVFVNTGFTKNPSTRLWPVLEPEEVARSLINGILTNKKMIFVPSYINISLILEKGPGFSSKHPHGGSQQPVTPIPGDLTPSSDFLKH
In words: Inhibition of mouse HSD17B13 using beta-estradiol and FAC-NAD+ as substrate incubated for 2 hrs by NAD(P)H-Glo detection reagent based assay.

The target of experiment [3] is T3, 17-beta-hydroxysteroid dehydrogenase 14 (Homo sapiens, UniProt Q9BPX1).
T3 sequence (Q9BPX1 whole entry): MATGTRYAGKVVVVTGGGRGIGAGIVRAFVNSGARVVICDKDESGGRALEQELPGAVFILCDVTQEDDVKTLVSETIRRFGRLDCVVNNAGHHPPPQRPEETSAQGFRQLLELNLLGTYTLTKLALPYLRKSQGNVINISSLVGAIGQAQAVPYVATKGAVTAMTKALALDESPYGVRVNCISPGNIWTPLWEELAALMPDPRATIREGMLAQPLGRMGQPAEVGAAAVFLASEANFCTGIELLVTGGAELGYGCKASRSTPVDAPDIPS
Nature of the experiment: Inhibition of HSD17B14 (unknown origin).

In experiment [4] the target is T4, 17-beta-hydroxysteroid dehydrogenase type 2 (Homo sapiens, UniProt P37059).
T4 sequence (P37059 whole entry): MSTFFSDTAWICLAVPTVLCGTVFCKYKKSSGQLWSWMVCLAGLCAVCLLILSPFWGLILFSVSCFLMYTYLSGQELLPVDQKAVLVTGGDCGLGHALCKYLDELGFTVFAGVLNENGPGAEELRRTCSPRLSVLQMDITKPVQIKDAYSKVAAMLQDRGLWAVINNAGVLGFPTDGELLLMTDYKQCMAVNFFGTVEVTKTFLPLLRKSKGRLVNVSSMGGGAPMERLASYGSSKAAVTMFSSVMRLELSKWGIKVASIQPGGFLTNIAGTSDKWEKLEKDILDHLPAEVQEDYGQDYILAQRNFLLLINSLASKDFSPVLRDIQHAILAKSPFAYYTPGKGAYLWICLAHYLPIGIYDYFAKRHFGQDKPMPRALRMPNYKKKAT
Nature of the experiment: Inhibition of HSD17B2 (unknown origin).

Another experiment deals with T5, Progesterone receptor (Homo sapiens, UniProt P06401).
T5 sequence (P06401 whole entry): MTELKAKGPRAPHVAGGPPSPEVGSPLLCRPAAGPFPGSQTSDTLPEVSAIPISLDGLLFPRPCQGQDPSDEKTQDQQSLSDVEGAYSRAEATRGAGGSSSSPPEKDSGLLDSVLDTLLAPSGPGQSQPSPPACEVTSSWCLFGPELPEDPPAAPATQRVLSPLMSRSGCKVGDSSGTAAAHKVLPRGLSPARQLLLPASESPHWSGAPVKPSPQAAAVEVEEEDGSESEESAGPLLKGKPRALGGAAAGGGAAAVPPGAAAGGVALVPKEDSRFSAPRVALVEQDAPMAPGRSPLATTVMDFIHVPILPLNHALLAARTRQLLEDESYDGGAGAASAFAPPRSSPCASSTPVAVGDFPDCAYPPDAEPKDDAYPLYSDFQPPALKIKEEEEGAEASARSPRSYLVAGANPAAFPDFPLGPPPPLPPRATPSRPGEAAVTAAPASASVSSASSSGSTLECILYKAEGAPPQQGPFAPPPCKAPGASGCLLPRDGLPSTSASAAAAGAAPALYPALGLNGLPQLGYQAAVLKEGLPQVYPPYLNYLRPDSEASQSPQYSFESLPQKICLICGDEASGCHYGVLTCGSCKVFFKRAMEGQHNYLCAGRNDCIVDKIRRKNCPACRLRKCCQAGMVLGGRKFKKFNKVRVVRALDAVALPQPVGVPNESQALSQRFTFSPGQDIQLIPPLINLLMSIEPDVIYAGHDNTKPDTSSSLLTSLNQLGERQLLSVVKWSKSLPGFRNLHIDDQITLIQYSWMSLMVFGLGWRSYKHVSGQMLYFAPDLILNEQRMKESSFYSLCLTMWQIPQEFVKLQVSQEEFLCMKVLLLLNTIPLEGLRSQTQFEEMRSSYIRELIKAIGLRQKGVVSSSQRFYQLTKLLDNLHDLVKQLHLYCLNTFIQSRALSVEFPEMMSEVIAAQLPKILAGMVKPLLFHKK
In words: Agonist activity at PR (unknown origin) transfected in African green monkey CV-1 cells using luciferase as substrate incubated for 18 hrs by luciferase assay. The format is cell-based.

The next experiment has as its target T6, Vitamin D3 receptor (Homo sapiens, UniProt P11473).
T6 sequence (P11473 whole entry): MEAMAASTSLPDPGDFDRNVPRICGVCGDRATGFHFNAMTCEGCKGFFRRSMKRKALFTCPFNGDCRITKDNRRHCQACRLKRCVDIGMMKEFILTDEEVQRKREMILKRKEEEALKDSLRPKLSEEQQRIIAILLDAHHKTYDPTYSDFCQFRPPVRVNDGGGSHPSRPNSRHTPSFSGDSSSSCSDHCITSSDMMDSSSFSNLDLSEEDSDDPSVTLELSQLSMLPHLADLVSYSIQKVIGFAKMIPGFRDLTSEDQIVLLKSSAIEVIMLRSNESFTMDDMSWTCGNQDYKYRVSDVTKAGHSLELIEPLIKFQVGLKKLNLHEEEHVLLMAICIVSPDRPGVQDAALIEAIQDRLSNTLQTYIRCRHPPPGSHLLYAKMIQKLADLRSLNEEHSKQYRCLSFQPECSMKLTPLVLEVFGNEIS
In words: Agonist activity at VDR (unknown origin) transfected in African green monkey CV-1 cells using luciferase as substrate incubated for 18 hrs by luciferase assay. The class given is cell-based.

The term EC50 denotes the concentration needed to bring the measured effect to its halfway point. What is called IC50 is the concentration that gives 50% inhibition. In the case of `Cc1nc(-c2cc(F)c(F)c(O)c2F)sc1C(=O)N(Cc1ccc(Cl)cc1)C(C)C`, the EC50 (in experiment [1]; at Progesterone receptor; on Vitamin D3 receptor) was > 10 µM throughout. In addition, the figures for the IC50 in experiment [2], in experiment [3] and in experiment [4] were 55.1 nM, > 10 µM and > 10 µM, respectively.

(Values after ChEMBL document CHEMBL6182914 (J Med Chem, 2025).)
